Results taken from patent publication US11773127B2, “Compounds and methods for treating bacterial infections” (Washington University, priority 2017, dated 2023).

Experiments:
[1] = target: T1, FmlH lectin domain (FmlH^LD; first 182 amino acids of CFT073 FmlH = signal sequence and lectin domain, C-terminal 6×-his tag, wild-type, biotinylated) (Escherichia coli, UniProt A0A0H2V7F6); assay: ELISA-based competition assay: inhibition of biotinylated FmlH lectin domain binding to surface-immobilized desialylated bovine submaxillary mucin (ds-BSM); parameters: species or system E. coli (uropathogenic, urosepsis isolate CFT073); settings: read-out: FmlH (FmlH^LD) lectin domain (LD) IC50, FIG. 14, 20 μg/mL biotinylated FmlH^LD, compounds serially diluted 2×, 1 hour at room temperature, ds-BSM coated wells, absorbance 450 nm
T1 construct: biotinylated for ELISA; wild type
Protocol: Thereafter, wells were incubated with 200 μl blocking buffer (PBS+1% BSA) for 2 hours at 23° C., followed by incubation with 100 μl biotinylated FmlHLD diluted in blocking buffer to 20 μg/ml in the presence or absence of the tested compounds for 1 hr at 23° C. After washing 3× with PBS+0.05% TWEEN-20, 100 μl Streptavidin-HRP conjugate (BD Biosciences; 1:2000 dilution in blocking buffer) was added to each well for 1 hr at 23° C. After a final round of washing, plates were developed with 100 μl Tetramethylbenzidine (TMB, BD Biosciences) substrate, quenched within 1-2 min with 50 μl […], and absorbance measured at 450 nm.
Briefly, 1 μg bovine submaxillary mucin (Sigma) in 100 uL PBS were incubated with Immulon 4HBX 96-well plates overnight prior to treatment with 1 mU Arthrobacter ureafaciens sialidase for 1 hour at 37° C. to remove terminal sialic acid sugars. Wells were then blocked with 200 μL PBS+1% BSA for 2 hours at room temperature. Biotinylated FmlH^LD was diluted to 20 μg/mL in blocking buffer and incubated in the presence or absence of compounds serially diluted 2× down eight rows for 1 hour at room temperature. […] Total bound portion concentration was measured by the absorbance at 450 nm. IC50s were determined using the Graphpad Prism software.

FmlHLD [2] = target: T2, FmlHLD (Escherichia coli, UniProt P77588); assay: biochemical; assay type: binding, E. coli
T2 construct: 6xHis (C); made in house; host or cells: E. coli C600, periplasm, pTRC99a
Summary of the method: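 Sialidase-treated bovine submaxillary mucin (ds-BSM) coated wells, BSA-blocked, then biotinylated FmlH^LD (20 μg/mL) with or without compound for 1 h at room temperature. Bound lectin detected by streptavidin-HRP/TMB, A450.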

FmlHLD [3] = target: T2, FmlHLD; assay: biochemical; assay type: binding, E. coli; settings: for Kd: immobilized ser-TF
From the text: Bio-layer interferometry (BLI) was used to quantitate the binding affinity of select galactosides to FmlH.
Thereafter, pins were dipped in PBS for 120 s and transferred to protein samples (varying concentration of FmlHLD or fixed concentration of FmlHLD with varying concentration of galactoside compounds) for association for 300-600 s.

CFT073 = assay: Murine chronic UTI (chronic cystitis) model, bacterial titers in bladder and kidney; assay type: in vivo, C3H/HeN mice; settings: 50 mg/kg transurethral, 6 hours post treatment, relative to vehicle control
Protocol: To assess therapeutic efficacy, galactosides were evaluated for their ability to reduce bacterial burdens in the urinary tracts of C3H/HeN mice during chronic UTI. 7-8 week old female C3H/HeN mice were obtained from Envigo (Indianapolis, IN). Mice were anesthetized and inoculated via transurethral catheterization with 50 μl of CFT073 bacterial suspension (˜1-2*10^8 CFU in total) in phosphate-buffered saline (PBS). Chronic cystitis in C3H/HeN mice was defined as urine titers of >10^4 CFU/ml lasting at least two to four weeks, as well as bladder inflammation and edema at euthanasia. […] Accordingly, high levels of CFT073 kidney colonization were also observed in control (vehicle-treated) animals. […] Compounds tested were: 29β-NAc (50 mg/kg), mannoside 4Z269 (a type 1 pilus adhesin FimH inhibitor, 50 mg/kg), or 29β-NAc+4Z269. Mice were sacrificed 6 hours post treatment and bacteria colonizing the bladder or kidney were plated for quantification. Data are presented in FIG. 9, panels A and B, as bacterial titers of CFT073 in each organ in each condition. The horizontal lines represent the means. Asterisks indicate significance (*P<0.05, **P<0.01, ***P<0.001, ****P<0.0001, two-tailed Mann-Whitney U test). Each condition was measured in two or three independent experiments with 4 or 5 mice per group per experiment.

FmlHLD [4] = target: T2, FmlHLD; assay: Immunofluorescence of FmlHLD binding to human bladder and kidney tissue; parameters: species or system E. coli; settings: 50 μg/ml FmlHLD WT incubated with 100 μM compound
Protocol: The relevance of FmlH and FmlH-targeting galactosides in human UTI was assessed by performing immunofluorescence analysis of wild-type (WT) FmlHLD or mutant (K132Q) FmlHLD binding to human bladder and non-malignant kidney biopsied tissue in the presence or absence of 29β-NAc.
Frozen, de-identified human bladder and kidney sections were obtained from the Tissue Procurement Core and stored stably at −80° C. These tissue section slides were removed from the freezer and allowed to thaw at room temperature for 10-20 min. After applying a hydrophobic barrier pen around the tissue, slides were rehydrated in 200 μl buffer (5% BSA, 0.2% Triton X-100 in PBS) for 10 min. Buffer was gently aspirated and slides were blocked for 1 hr at room temperature with 200 μl buffer. Thereafter, buffer was gently aspirated and slides were incubated with 200 μl sample overnight at 4° C. Samples diluted in buffer included 50 μg/ml FmlHLD wild-type (WT), 50 μg/ml FmlHLD K132Q, and 50 μg/ml FmlHLD WT incubated with 100 μM 29β-NAc. Samples were gently aspirated and slides were washed three times in buffer for 5 min each. Next, slides were incubated with a mouse anti-FmlH polyclonal antibody (1:500 dilution in buffer) for 1 hr at room temperature. […]

T2 sequence (P77588 25-182): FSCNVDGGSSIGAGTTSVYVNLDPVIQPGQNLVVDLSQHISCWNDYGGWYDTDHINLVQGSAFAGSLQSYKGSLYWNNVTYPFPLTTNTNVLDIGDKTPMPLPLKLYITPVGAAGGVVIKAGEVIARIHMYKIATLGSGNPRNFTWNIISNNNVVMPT
T1 sequence (A0A0H2V7F6 entry or part of it): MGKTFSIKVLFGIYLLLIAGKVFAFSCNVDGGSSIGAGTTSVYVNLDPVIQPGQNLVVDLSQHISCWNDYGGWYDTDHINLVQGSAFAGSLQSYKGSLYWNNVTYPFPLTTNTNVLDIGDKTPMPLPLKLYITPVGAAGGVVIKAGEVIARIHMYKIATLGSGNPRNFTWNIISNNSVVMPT

With `CC(=O)N[C@H]1[C@H](Oc2ccccc2-c2cccc(C(=O)O)c2)O[C@H](CO)[C@H](O)[C@@H]1O` [D00014 row 1, 2′-(2-acetamido-2-deoxy-β-D-galactopyranosyloxy)-[1,1′-Biphenyl]-3-carboxylic acid] the IC50 [1] was 650 nM.

For `CC(=O)N[C@H]1[C@H](Oc2ccccc2-c2cccc(C(=O)O)c2)O[C@H](CO)[C@H](O)[C@@H]1O` [Compound 29β-NAc, 2′-(2-acetamido-2-deoxy-β-D-galactopyranosyloxy)-[1,1′-Biphenyl]-3-carboxylic acid], the “inhibitory potency against FmlH, in words” value (FmlHLD [2]; ELISA-based competition assay) was “most potent”, the IC50 (FmlHLD [2]; IC50 (μM), Table 5, Gal and GalNAc inhibition of FmlH) was 0.64 µM and the inhibition at 1 µM (FmlHLD [2]; read-out: PI1 (percent inhibition), galactoside at 1 μM, mean with standard error of the mean) was 54.7 ± 2.8%. The inhibition at 10 µM (FmlHLD [2]; read-out: PI10 (percent inhibition), galactoside at 10 μM, mean with standard error of the mean) was 93%, the inhibition at 100 µM (FmlHLD [2]; read-out: PI100 (percent inhibition), galactoside at 100 μM, mean with standard error of the mean) was 99.5 ± 2.2% and the “enhancement in binding affinity relative to Gal” value (FmlHLD [3]; BLI Kd ratio) was ~7,800 fold. For the same compound, the Kd (FmlHLD [3]; Kd (μM), inhibitory constants, fixed FmlHLD, varying galactoside in solution) was 0.089 µM, the Kd (FmlHLD [3]; Kd, galactoside in solution) was ~0.09 µM and the “bacterial titers of CFT073 in the bladder” value (CFT073) was “significant reduction of CFT073 in the bladders”. For the same compound, the “bacterial titers of CFT073 in the kidney” value (CFT073) was “even greater clearance of CFT073 from the kidneys” and the “FmlHLD binding to human kidney tissue” value (FmlHLD [4]) was “prevented binding to human kidney tissue”.
